The numbers were not newly measured in US5908764A, “Methods and compositions for increasing production of erythromycin” (Solidago AG, priority 1997, dated 1999), which cites them from elsewhere.

One data set concerns the target horse heart myoglobin (Equus caballus, UniProt P68082). As to conditions: oxygen affinity; Wittenberg et al., 1985.
Data set [1] addresses Vitreoscilla hemoglobin (VHb) (Vitreoscilla stercoraria, UniProt P04252). As to conditions: koff rate for oxygen; Orii and Webster, 1986.

Chain of horse heart myoglobin (P68082 whole entry): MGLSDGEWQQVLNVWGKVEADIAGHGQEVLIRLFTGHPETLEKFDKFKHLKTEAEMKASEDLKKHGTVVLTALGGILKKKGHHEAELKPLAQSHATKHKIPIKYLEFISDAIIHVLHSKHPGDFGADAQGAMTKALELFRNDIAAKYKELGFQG

On to `O=O` [oxygen], for which the Kd on horse heart myoglobin is 0.79 µM. The koff in data set [1] was 5600 s⁻¹.
